From patent publication US20090036418A1, “Pharmaceutical composition for treatment of cancer containing pyridylpyridazine or transition metal complex thereof as active ingredient” (priority 2005, published 2009)

Tested on: XF-498 (human brain cancer)
Assay: SRB assay, XF-498 cancer cell line
Format: cell-based
Details: brain cancer cell line of Test Example 1, SRB assay
Method: The pyridylpyridazine compounds prepared in Preparation Examples 1 to 5 and transition metal complexes thereof were evaluated for the anticancer activities thereof. As cancer cell lines used in the test, A549 (human lung cancer), SK-MEL-2 (human skin cancer), HCT-15 (human colon cancer), SK-OV-3 (human […]) and XF-498 (human brain cancer) among 60 kinds of cancer cell lines[Ross, D. T. et al., Systematic variation in gene expression patterns I human cancer cell lines. Nature genetics, 24, 227-235 (2000)], which are used for the search of anticancer activity in the US National Cancer Institute, were obtained from the Bioorganic Research Division, the Korea Research Institute of Chemical Technology. The anticancer activities of the cell lines were evaluated by measuring ED50 values according to the sulforhodamine B (SRB) assay described in the literature[Choi, S. et al., Cytotoxicity of trichlorothecenes to human solid tumor cells in vitro. Arch. Pharm. Res. 19, 6-11 (1996)]. […]
More specifically, the SRB assay was performed in the following manner. […] After completion of the culture, each well was well washed, treated with 150 μl (10 mM) of unbuffer ED Tris solution to dissolve out the SRB dye, and then measured for absorbance at 520 nm using a reader for 96-well plates. […]

| Compound | anticancer activity against the brain cancer cell line (in words) |
| --- | --- |
| c1ccc(-c2ccc(-c3ccccn3)nn2)nc1 [Compound of Preparation Example 1, 3,6-bis(2′-pyridyl)pyridazine] | high anticancer activity |
| [3,6-bis(6′-methyl-2′-pyridyl)pyridazine]zinc(II) chloride [Compound of Preparation Example 4] | excellent anticancer activity |
